Source: publication PMC3236397 (Frontiers in Pharmacology, 2011)
pIC50: −log10 of the molar value.

Assays:
Nav1.6 = Nav1.6 (Homo sapiens, UniProt Q9UQD0); assay: IonWorks Quattro 2-pulse inactivated-state protocol; assay type: cell-based; details: Predicted IC50 potency values Nav1.6 P1, Pulse 1, 2-pulse protocol
NMU1 = NMU1 (Homo sapiens, UniProt Q9HB89); assay: GPCR cell-based functional assay, Safety and Liability Panel; details: read-out: Percentage inhibition
S1P3 = S1P3 (Homo sapiens, UniProt Q99500); assay: as above; details: read-out: Percentage inhibition
M2 = M2 (Homo sapiens, UniProt P08172); assay: as above; details: read-out: Percentage inhibition
EP3 = EP3 (Homo sapiens, UniProt P43115); assay: as above; details: read-out: Percentage inhibition
VPAC2 = VPAC2 (Homo sapiens, UniProt P41587); assay: as above; details: read-out: Percentage inhibition
LPA1 = LPA1 (Homo sapiens, UniProt Q92633); assay: as above; details: read-out: Percentage inhibition
TP = TP (Homo sapiens, UniProt P21731); assay: as above; details: read-out: Percentage inhibition
GnRH/LHRH = GnRH/LHRH (Homo sapiens, UniProt P30968); assay: as above; details: read-out: Percentage inhibition
Alpha2A = Alpha2A (Homo sapiens, UniProt P08913); assay: as above; details: read-out: Percentage inhibition
BLT1 = BLT1 (Homo sapiens, UniProt Q15722); assay: as above; details: read-out: Percentage inhibition
TSH = TSH (Homo sapiens, UniProt P16473); assay: as above; details: read-out: Percentage inhibition
PTH1 = PTH1 (Homo sapiens, UniProt Q03431); assay: as above; details: read-out: Percentage inhibition
PAF = PAF (Homo sapiens, UniProt P25105); assay: as above; details: read-out: Percentage inhibition
CCR2B = CCR2B (Homo sapiens, UniProt P41597); assay: as above; details: read-out: Percentage inhibition
PAC1 long isoform = assay: as above; design: species or system human; details: 10 μM BIRB0796
NK1 = NK1 (Homo sapiens, UniProt P25103); assay: as above; details: read-out: Percentage inhibition
Beta 2 = Beta 2 (Homo sapiens, UniProt P07550); assay: as above; details: read-out: Percentage inhibition
FP = FP (Homo sapiens, UniProt P43088); assay: as above; details: read-out: Percentage inhibition
5-HT2B = 5-HT2B (Homo sapiens, UniProt P41595); assay: as above; details: read-out: Percentage inhibition
CGRP1 = CGRP1 (Homo sapiens, UniProt O60894+Q16602); assay: as above; details: read-out: Percentage inhibition
Motilin receptor = Motilin receptor (Homo sapiens, UniProt O43193); assay: as above; details: read-out: Percentage inhibition
CCR1 = CCR1 (Homo sapiens, UniProt P32246); assay: as above; details: read-out: Percentage inhibition
V1A = V1A (Homo sapiens, UniProt P37288); assay: as above; details: read-out: Percentage inhibition
Sequence of V1A (P37288 whole entry): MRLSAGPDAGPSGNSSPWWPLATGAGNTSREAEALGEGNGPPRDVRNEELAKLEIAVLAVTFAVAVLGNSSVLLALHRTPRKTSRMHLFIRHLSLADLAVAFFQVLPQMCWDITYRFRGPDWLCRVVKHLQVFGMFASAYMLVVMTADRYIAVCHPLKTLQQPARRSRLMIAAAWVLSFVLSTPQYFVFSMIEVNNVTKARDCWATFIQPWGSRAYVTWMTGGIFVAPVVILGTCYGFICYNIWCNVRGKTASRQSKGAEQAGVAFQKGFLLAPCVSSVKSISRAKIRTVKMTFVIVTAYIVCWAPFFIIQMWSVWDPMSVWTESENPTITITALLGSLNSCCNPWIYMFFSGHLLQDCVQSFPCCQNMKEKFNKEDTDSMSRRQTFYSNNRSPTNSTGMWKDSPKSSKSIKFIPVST

DP = DP (Homo sapiens, UniProt Q13258); assay: as above; details: read-out: Percentage inhibition
CB2 = CB2 (Homo sapiens, UniProt P34972); assay: as above; details: read-out: Percentage inhibition
NK3 = NK3 (Homo sapiens, UniProt P29371); assay: as above; details: read-out: Percentage inhibition
AT1 = AT1 (Homo sapiens, UniProt P30556); assay: as above; details: read-out: Percentage inhibition
Sequence of AT1 (P30556 whole entry): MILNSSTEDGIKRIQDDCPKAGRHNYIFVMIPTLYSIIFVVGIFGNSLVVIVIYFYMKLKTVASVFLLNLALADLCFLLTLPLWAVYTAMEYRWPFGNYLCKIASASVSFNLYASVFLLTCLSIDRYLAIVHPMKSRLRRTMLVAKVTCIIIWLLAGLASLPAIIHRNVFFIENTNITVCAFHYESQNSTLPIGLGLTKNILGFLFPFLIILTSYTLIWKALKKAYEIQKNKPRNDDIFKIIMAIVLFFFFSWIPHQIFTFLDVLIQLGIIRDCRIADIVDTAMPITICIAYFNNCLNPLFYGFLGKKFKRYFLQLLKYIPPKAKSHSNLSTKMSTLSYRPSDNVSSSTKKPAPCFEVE

GPR109A = GPR109A (Homo sapiens, UniProt Q8TDS4); assay: as above; details: read-out: Percentage inhibition
IP1 = IP1 (Homo sapiens, UniProt P43119); assay: as above; details: read-out: Percentage inhibition
CX3CR1 = CX3CR1 (Homo sapiens, UniProt P49238); assay: as above; details: read-out: Percentage inhibition
LPA3 = LPA3 (Homo sapiens, UniProt Q9UBY5); assay: as above; details: read-out: Percentage inhibition
OPRD1 = OPRD1 (Homo sapiens, UniProt P41143); assay: as above; details: read-out: Percentage inhibition
Sequence of OPRD1 (P41143 whole entry): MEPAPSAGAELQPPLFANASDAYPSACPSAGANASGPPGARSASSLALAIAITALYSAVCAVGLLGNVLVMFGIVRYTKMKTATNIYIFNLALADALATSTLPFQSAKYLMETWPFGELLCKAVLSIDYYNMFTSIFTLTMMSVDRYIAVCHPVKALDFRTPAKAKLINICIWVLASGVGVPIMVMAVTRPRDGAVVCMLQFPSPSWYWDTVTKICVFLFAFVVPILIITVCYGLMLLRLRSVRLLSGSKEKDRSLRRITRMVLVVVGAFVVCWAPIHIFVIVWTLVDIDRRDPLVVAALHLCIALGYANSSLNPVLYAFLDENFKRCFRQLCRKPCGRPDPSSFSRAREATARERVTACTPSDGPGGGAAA

OPRM1 = OPRM1 (Homo sapiens, UniProt P35372); assay: as above; details: OPRM1, read-out: Percentage inhibition
BB2 = BB2 (Homo sapiens, UniProt P30550); assay: as above; details: read-out: Percentage inhibition
ETB = ETB (Homo sapiens, UniProt P24530); assay: as above; details: read-out: Percentage inhibition
C5aR = C5aR (Homo sapiens, UniProt P21730); assay: as above; details: read-out: Percentage inhibition
Sequence of C5aR (P21730 whole entry): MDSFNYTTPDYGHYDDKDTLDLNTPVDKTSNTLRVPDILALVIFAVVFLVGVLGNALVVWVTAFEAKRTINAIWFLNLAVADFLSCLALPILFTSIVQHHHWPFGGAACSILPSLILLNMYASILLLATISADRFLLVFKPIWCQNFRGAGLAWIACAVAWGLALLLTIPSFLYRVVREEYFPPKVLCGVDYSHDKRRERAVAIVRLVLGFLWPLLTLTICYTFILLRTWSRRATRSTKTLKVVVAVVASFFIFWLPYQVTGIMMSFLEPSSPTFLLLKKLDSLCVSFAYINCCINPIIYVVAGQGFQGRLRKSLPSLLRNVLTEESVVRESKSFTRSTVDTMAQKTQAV

A1 = A1 (Homo sapiens, UniProt P30542); assay: as above; details: read-out: Percentage inhibition
M3 = M3 (Homo sapiens, UniProt P20309); assay: as above; details: read-out: Percentage inhibition
Sequence of M3 (P20309 whole entry): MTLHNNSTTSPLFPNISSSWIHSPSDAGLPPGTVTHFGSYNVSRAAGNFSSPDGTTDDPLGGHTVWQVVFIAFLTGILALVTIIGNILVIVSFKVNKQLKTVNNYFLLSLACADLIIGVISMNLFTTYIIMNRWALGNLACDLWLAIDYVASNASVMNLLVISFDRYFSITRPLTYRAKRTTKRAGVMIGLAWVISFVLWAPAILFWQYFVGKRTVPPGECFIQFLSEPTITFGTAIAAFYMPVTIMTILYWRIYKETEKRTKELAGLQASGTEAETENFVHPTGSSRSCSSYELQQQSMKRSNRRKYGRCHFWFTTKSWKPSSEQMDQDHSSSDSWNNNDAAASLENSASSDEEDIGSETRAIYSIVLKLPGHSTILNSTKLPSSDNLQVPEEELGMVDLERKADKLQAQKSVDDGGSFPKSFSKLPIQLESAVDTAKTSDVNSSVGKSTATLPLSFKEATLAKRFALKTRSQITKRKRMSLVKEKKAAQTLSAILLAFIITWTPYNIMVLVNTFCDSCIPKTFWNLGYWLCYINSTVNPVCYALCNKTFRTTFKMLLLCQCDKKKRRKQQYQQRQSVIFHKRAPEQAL

PK1 = PK1 (Homo sapiens, UniProt Q8TCW9); assay: as above; details: PK-1, read-out: Percentage inhibition
VPAC1 = VPAC1 (Homo sapiens, UniProt P32241); assay: as above; details: read-out: Percentage inhibition
B2 = B2 (Homo sapiens, UniProt P30411); assay: as above; details: read-out: Percentage inhibition
Sequence of B2 (P30411 whole entry): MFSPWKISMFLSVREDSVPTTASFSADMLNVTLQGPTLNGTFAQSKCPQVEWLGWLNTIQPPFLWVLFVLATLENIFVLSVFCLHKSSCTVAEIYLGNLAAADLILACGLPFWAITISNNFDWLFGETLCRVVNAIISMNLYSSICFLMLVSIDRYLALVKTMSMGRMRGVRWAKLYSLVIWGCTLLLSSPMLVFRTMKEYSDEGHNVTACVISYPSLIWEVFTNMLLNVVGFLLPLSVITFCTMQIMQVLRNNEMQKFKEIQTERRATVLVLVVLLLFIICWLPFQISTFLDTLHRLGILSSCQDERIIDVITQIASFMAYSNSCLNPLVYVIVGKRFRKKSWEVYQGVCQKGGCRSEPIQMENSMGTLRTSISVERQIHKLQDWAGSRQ

hERG = hERG (Homo sapiens, UniProt Q12809); assay: in vitro
A3 = A3 (Homo sapiens, UniProt P0DMS8); assay: GPCR cell-based functional assay, Safety and Liability Panel; details: read-out: Percentage inhibition
Alpha1D = Alpha1D (Homo sapiens, UniProt P25100); assay: as above; details: read-out: Percentage inhibition
V2 = V2 (Homo sapiens, UniProt P30518); assay: as above; details: read-out: Percentage inhibition
Sequence of V2 (P30518 whole entry): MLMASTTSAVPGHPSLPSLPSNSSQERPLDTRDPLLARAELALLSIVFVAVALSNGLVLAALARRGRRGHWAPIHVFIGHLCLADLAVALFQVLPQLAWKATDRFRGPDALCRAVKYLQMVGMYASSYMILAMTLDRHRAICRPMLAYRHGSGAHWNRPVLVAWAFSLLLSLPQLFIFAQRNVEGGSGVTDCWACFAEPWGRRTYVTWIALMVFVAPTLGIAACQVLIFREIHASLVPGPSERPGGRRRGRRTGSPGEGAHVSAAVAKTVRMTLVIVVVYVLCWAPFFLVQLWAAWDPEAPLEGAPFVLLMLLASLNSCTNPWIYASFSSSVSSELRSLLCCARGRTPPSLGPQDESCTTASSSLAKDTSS

Kv1.5 = Kv1.5 (Homo sapiens, UniProt P22460); assay: Cardiac ion channel functional assay, Safety and Liability Panel; assay type: cell-based
EP2 = EP2 (Homo sapiens, UniProt P43116); assay: GPCR cell-based functional assay, Safety and Liability Panel; details: read-out: Percentage inhibition
P2Y1 = P2Y1 (Homo sapiens, UniProt P47900); assay: as above; details: read-out: Percentage inhibition
CXCR1 = CXCR1 (Homo sapiens, UniProt P25024); assay: as above; details: read-out: Percentage inhibition
5-HT1A = 5-HT1A (Homo sapiens, UniProt P08908); assay: as above; details: read-out: Percentage inhibition
ETA = ETA (Homo sapiens, UniProt P25101); assay: as above; details: read-out: Percentage inhibition
OT = OT (Homo sapiens, UniProt P30559); assay: as above; details: read-out: Percentage inhibition
UT/GPR14 = UT/GPR14 (Homo sapiens, UniProt Q9UKP6); assay: as above; details: read-out: Percentage inhibition
OX1 = OX1 (Homo sapiens, UniProt O43613); assay: as above; details: read-out: Percentage inhibition
CB1 = CB1 (Homo sapiens, UniProt P21554); assay: as above; details: read-out: Percentage inhibition
H2 = H2 (Homo sapiens, UniProt P25021); assay: as above; details: read-out: Percentage inhibition
H1 = H1 (Homo sapiens, UniProt P35367); assay: as above; details: read-out: Percentage inhibition
D2L = D2L (Homo sapiens, UniProt P14416); assay: as above; details: read-out: Percentage inhibition
GAL1 = GAL1 (Homo sapiens, UniProt P47211); assay: as above; details: read-out: Percentage inhibition
Sequence of GAL1 (P47211 whole entry): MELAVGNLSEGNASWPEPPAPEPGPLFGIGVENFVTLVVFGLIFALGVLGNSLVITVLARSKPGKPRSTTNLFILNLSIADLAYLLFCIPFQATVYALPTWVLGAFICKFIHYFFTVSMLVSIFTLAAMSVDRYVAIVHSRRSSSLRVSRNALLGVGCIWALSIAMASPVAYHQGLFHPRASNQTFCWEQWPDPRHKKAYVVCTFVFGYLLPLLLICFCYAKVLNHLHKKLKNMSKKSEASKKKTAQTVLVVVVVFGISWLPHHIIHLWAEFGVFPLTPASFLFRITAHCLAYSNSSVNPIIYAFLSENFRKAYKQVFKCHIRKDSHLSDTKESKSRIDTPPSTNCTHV

5-HT2C = 5-HT2C (Homo sapiens, UniProt P28335); assay: as above; details: read-out: Percentage inhibition
Trypsin-mediated PARs = assay: as above; design: species or system human; details: 10 μM BIRB0796
NTR1 = NTR1 (Homo sapiens, UniProt P30989); assay: as above; details: read-out: Percentage inhibition
OPRK1 = OPRK1 (Homo sapiens, UniProt P41145); assay: as above; details: read-out: Percentage inhibition
Alpha1A = Alpha1A (Homo sapiens, UniProt P35348); assay: as above; details: read-out: Percentage inhibition
Sequence of Alpha1A (P35348 whole entry): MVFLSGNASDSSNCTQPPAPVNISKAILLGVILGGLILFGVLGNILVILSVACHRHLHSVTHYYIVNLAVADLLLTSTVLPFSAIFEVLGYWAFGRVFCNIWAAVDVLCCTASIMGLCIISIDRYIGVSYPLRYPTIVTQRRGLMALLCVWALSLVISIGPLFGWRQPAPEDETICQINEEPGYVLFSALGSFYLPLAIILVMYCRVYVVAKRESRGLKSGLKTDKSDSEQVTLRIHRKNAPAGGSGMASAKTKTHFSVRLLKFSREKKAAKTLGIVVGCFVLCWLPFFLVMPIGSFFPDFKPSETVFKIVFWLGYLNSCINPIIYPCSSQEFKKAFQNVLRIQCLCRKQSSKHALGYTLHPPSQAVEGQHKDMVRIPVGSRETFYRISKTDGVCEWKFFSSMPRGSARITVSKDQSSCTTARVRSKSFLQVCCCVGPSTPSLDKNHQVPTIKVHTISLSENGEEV

D5 = D5 (Homo sapiens, UniProt P21918); assay: as above; details: read-out: Percentage inhibition
PRP = PRP (Homo sapiens, UniProt P49683); assay: as above; details: read-out: Percentage inhibition
CRF1 = CRF1 (Homo sapiens, UniProt P34998); assay: as above; details: read-out: Percentage inhibition
M1 = M1 (Homo sapiens, UniProt P11229); assay: as above; details: read-out: Percentage inhibition
SST4 = SST4 (Homo sapiens, UniProt P31391); assay: as above; details: read-out: Percentage inhibition
Sequence of SST4 (P31391 whole entry): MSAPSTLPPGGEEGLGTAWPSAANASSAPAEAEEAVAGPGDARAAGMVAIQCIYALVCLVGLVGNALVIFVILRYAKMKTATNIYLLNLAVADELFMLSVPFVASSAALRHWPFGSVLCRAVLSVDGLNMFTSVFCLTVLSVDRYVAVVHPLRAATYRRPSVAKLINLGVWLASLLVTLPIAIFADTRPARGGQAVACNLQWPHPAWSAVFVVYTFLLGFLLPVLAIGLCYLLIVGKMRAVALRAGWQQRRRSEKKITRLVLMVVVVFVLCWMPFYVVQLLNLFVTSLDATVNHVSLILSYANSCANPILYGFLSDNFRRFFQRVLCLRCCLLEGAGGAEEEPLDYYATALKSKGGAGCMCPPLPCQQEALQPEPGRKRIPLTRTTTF

Y2 = Y2 (Homo sapiens, UniProt P49146); assay: as above; details: read-out: Percentage inhibition
Sequence of Y2 (P49146 whole entry): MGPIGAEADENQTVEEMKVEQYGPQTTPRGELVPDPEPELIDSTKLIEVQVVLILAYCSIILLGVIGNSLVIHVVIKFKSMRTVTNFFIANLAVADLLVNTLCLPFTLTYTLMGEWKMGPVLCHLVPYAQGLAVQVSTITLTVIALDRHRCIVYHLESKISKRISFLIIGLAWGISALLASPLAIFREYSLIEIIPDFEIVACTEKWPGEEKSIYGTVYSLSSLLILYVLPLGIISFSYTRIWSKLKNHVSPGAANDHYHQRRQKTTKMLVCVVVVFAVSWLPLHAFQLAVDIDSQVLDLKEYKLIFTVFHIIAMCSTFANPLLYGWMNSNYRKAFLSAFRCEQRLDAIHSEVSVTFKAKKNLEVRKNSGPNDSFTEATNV

CysLT1 = CysLT1 (Homo sapiens, UniProt Q9Y271); assay: as above; details: read-out: Percentage inhibition
Sequence of CysLT1 (Q9Y271 whole entry): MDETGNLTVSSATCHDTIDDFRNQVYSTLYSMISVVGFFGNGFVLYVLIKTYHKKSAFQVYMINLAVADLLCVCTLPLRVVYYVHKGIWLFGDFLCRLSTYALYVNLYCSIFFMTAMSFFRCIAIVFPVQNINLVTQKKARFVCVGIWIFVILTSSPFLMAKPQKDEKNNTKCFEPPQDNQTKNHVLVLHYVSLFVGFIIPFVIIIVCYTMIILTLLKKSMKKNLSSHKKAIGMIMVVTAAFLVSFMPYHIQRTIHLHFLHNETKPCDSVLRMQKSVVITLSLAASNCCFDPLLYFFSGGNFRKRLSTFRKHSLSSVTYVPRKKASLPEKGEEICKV

5-HT2A = 5-HT2A (Homo sapiens, UniProt P28223); assay: as above; details: read-out: Percentage inhibition
MC5 = MC5 (Homo sapiens, UniProt P33032); assay: as above; details: read-out: Percentage inhibition
H3 = H3 (Homo sapiens, UniProt Q9Y5N1); assay: as above; details: read-out: Percentage inhibition
CCK2 = CCK2 (Homo sapiens, UniProt P32239); assay: as above; details: read-out: Percentage inhibition
Beta 1 = Beta 1 (Homo sapiens, UniProt P08588); assay: as above; details: read-out: Percentage inhibition
FPR1 = FPR1 (Homo sapiens, UniProt P21462); assay: as above; details: read-out: Percentage inhibition
D1 = D1 (Homo sapiens, UniProt P21728); assay: as above; details: read-out: Percentage inhibition

In the case of `CCN(CC)CC(=O)Nc1c(C)cccc1C` [Lidocaine], the pIC50 (Nav1.6) was 3.57.

`Cc1ccc(-n2nc(C(C)(C)C)cc2NC(=O)Nc2ccc(OCCN3CCOCC3)c3ccccc23)cc1` [BIRB0796] was tested, and the inhibition at 10 µM (NMU1) was 22.5%, the inhibition at 10 µM (S1P3) was -1.5% and the inhibition at 10 µM (M2) was 34.5%. It also gave an inhibition at 10 µM (EP3) of 7.5%, an inhibition at 10 µM (VPAC2) of -4% and an inhibition at 10 µM (LPA1) of 6.5%. For the same compound, the inhibition at 10 µM (TP) was 32%, the inhibition at 10 µM (GnRH/LHRH) was -20.5% and the inhibition at 10 µM (Alpha2A) was -4%. The inhibition at 10 µM (BLT1) was 8.5%, the inhibition at 10 µM (TSH) was -4% and the inhibition at 10 µM (PTH1) was 0%. The inhibition at 10 µM (PAF) was 19.5%, the inhibition at 10 µM (CCR2B) was 0% and the Percentage inhibition (PAC1 long isoform) was 3.5%. It also gave an inhibition at 10 µM (NK1) of 12%, an inhibition at 10 µM (Beta 2) of -9.5% and an inhibition at 10 µM (FP) of 20.5%. For the same compound, the inhibition at 10 µM (5-HT2B) was 18.5%, the inhibition at 10 µM (CGRP1) was 0% and the inhibition at 10 µM (Motilin receptor) was 94.5%. The inhibition at 10 µM (CCR1) was -6%, the inhibition at 10 µM (V1A) was 2% and the inhibition at 10 µM (DP) was 12.5%. The inhibition at 10 µM (CB2) was 80%, the inhibition at 10 µM (NK3) was 17.5% and the inhibition at 10 µM (AT1) was -2.5%. It also gave an inhibition at 10 µM (GPR109A) of -1%, an inhibition at 10 µM (IP1) of 12.5% and an inhibition at 10 µM (CX3CR1) of -12%. It also gave an inhibition at 10 µM (LPA3) of 5%, an inhibition at 10 µM (OPRD1) of 8.5% and an inhibition at 10 µM (OPRM1) of -2.5%. The inhibition at 10 µM (BB2) was 0%, the inhibition at 10 µM (ETB) was 11% and the inhibition at 10 µM (C5aR) was -5.5%. The inhibition at 10 µM (A1) was 19.5%, the inhibition at 10 µM (M3) was 5% and the inhibition at 10 µM (PK1) was -6.5%. The inhibition at 10 µM (VPAC1) was -2%, the inhibition at 10 µM (B2) was -4.5% and the inhibition at 10 µM (hERG) was ≥ 50%. For the same compound, the inhibition at 10 µM (A3) was 20.5%, the inhibition at 10 µM (Alpha1D) was 3.5% and the inhibition at 10 µM (V2) was 1%. The inhibition at 10 µM (Kv1.5) was ≥ 50%, the inhibition at 10 µM (EP2) was 2.5% and the inhibition at 10 µM (P2Y1) was 10.5%. It also gave an inhibition at 10 µM (CXCR1) of -1.5%, an inhibition at 10 µM (5-HT1A) of 31% and an inhibition at 10 µM (ETA) of -4%. The inhibition at 10 µM (OT) was 12.5%, the inhibition at 10 µM (UT/GPR14) was 18.5% and the inhibition at 10 µM (OX1) was 12%. The inhibition at 10 µM (CB1) was 9%, the inhibition at 10 µM (H2) was -5.5% and the inhibition at 10 µM (H1) was -1.5%. The inhibition at 10 µM (D2L) was 53.5%, the inhibition at 10 µM (GAL1) was -1.5% and the inhibition at 10 µM (5-HT2C) was 5.5%. The Percentage inhibition (Trypsin-mediated PARs) was 9.0%, the inhibition at 10 µM (NTR1) was -12% and the inhibition at 10 µM (OPRK1) was -19%. The inhibition at 10 µM (Alpha1A) was 6%, the inhibition at 10 µM (D5) was 14% and the inhibition at 10 µM (PRP) was 3%. It also gave an inhibition at 10 µM (CRF1) of 13%, an inhibition at 10 µM (M1) of 46.5% and an inhibition at 10 µM (SST4) of -5.5%. It also gave an inhibition at 10 µM (Y2) of -13.5%, an inhibition at 10 µM (CysLT1) of 2% and an inhibition at 10 µM (5-HT2A) of 99.5%. For the same compound, the inhibition at 10 µM (MC5) was 2%, the inhibition at 10 µM (H3) was 91.5% and the inhibition at 10 µM (CCK2) was 2%. For the same compound, the inhibition at 10 µM (Beta 1) was -6%, the inhibition at 10 µM (FPR1) was -4.5% and the inhibition at 10 µM (D1) was 23%.
